In ChEMBL document CHEMBL1201862, “PubChem BioAssay data set” (2004):
Active and inactive are the calls of the source.

Legend:
[1] = molecular target: Glyceraldehyde-3-phosphate dehydrogenase (Homo sapiens, UniProt P04406)
[2] = molecular target: T1, Alkaline phosphatase, tissue-nonspecific isozyme (Homo sapiens, UniProt P05186); experiment: human TNAP enzyme inhibitors, SAR follow-up, biochemical, luminescent, dose response (AID 1056)
T1 sequence (P05186 whole entry): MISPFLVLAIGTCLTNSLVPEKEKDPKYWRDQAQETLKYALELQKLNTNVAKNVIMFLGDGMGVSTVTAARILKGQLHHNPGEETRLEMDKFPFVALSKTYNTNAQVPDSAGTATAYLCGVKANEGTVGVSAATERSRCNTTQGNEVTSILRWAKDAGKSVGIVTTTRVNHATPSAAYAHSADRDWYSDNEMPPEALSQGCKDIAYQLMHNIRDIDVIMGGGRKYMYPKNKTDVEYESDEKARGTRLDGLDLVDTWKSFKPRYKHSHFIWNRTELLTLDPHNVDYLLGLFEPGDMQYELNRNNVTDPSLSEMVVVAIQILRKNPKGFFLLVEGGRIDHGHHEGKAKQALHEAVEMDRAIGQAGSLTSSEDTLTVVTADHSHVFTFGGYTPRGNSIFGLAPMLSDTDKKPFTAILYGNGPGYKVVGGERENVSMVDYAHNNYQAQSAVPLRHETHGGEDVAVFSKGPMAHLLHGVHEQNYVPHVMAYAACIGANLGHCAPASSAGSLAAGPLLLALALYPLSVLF

[3] = molecular target: Alkaline phosphatase, placental type (Homo sapiens, UniProt P05187); experiment: PLAP enzyme inhibitors, confirmation, biochemical, luminescence (AID 1512); assay type: functional
Sequence of Alkaline phosphatase, placental type (P05187 whole entry): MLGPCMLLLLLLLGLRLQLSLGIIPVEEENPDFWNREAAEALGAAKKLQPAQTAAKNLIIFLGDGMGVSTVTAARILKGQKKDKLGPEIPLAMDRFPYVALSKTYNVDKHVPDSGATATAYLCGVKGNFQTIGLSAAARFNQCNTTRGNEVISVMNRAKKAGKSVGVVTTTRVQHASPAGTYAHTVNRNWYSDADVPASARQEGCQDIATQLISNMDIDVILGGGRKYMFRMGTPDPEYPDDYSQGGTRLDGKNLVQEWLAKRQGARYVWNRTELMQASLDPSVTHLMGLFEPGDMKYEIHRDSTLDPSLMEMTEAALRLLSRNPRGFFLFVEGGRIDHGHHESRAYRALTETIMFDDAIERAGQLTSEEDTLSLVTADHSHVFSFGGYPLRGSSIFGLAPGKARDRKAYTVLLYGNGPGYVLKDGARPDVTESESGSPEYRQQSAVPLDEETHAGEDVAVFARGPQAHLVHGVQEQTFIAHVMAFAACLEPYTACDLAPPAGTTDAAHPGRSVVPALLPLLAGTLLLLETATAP

Streptococcus = experiment: Group A Streptococcus viability loss, dose response, counter-screen for streptokinase expression inhibitor project, luminescence, BacTiterGlo (AID 1915); assay type: functional, organism-based;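 also: potency for reduction of bacterial viability or growth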
[4] = molecular target: T2, Bifunctional protein GlmU (Mycobacterium tuberculosis, UniProt P9WMN3); experiment: Inhibitors of Mycobacterial Glucosamine-1-phosphate acetyl transferase (GlmU). Secondary screen.; parameters: species or system Mycobacterium tuberculosis H37Rv
T2 sequence (P9WMN3 whole entry): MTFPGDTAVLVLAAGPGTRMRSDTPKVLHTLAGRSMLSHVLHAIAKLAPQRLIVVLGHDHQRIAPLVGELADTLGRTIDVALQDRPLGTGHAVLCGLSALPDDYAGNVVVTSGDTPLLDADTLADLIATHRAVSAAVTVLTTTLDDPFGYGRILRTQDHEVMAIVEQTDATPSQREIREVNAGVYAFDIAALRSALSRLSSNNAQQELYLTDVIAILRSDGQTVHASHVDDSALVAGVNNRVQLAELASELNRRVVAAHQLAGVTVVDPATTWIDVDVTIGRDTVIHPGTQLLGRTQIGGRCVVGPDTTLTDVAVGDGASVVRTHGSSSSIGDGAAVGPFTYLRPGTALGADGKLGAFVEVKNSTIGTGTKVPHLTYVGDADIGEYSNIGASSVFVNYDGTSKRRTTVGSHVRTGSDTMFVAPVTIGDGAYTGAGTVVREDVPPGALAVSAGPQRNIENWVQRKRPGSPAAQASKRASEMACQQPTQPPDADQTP

[5] = molecular target: Dual specificity tyrosine-phosphorylation-regulated kinase 1A (Rattus norvegicus, UniProt Q63470); assay type: biochemical, Homo sapiens
[6] = molecular target: Induced myeloid leukemia cell differentiation protein Mcl-1 (Homo sapiens, UniProt Q07820); assay type: functional
Sequence of Induced myeloid leukemia cell differentiation protein Mcl-1 (Q07820 whole entry): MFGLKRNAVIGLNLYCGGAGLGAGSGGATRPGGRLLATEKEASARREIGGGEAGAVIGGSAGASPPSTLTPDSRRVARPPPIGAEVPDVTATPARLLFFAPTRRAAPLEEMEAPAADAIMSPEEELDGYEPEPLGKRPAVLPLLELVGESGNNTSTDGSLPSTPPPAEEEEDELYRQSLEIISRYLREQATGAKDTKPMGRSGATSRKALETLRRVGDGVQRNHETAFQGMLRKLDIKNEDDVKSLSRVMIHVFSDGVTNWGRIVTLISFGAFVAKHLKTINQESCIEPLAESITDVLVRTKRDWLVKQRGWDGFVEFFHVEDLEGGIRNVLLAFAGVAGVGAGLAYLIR

Large T antigen = Large T antigen (Simian virus 40, UniProt P03070); assay type: functional, Betapolyomavirus macacae;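 also: Confirmatory-stage PubChem screen for compounds that inhibit SV40 T antigen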
[7] = molecular target: G-protein coupled receptor 35 (Homo sapiens, UniProt Q9HC97); experiment: GPR35 antagonists blocking zaprinast-driven arrestin recruitment, primary screen, imaging, U2OS, beta-arrestin-GFP, zaprinast agonist (AID 2058); assay type: functional;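 also: antagonist potency meaning inhibition of agonist-induced arrestin redistribution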
Sequence of G-protein coupled receptor 35 (Q9HC97 whole entry): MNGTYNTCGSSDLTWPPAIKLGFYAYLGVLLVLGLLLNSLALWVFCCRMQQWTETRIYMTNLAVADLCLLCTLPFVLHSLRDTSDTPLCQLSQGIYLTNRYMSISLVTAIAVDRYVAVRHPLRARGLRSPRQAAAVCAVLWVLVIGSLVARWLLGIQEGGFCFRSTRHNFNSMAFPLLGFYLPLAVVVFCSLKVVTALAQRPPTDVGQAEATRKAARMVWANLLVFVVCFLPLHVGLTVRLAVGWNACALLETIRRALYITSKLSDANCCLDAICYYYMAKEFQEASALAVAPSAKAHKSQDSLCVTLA

Prothrombin = Prothrombin (Bos taurus, UniProt P00735); experiment: thrombin inhibition, dose response, biochemical, fluorescence polarization, uHTS hits (AID 602369); assay type: functional
[8] = tested on: Streptococcus sp. 'group A'; experiment: growth inhibition of control SK(-) GAS strain, dose response, counter-screen for streptokinase expression inhibitor project, luminescence, kanamycin, BacTiterGlo, confirmation (AID 1900); assay type: functional, organism-based
[9] = molecular target: 72 kDa type IV collagenase (Homo sapiens, UniProt P08253); experiment: Dose Response validation of uHTS RPN11 inhibitor hits using a MMP-2 Fluorescence assay.; assay type: functional
[10] = molecular target: 26S proteasome non-ATPase regulatory subunit 14 (Homo sapiens, UniProt O00487); experiment: inhibition of proteasome subunit RPN11 – biochemical, fluorescence polarization, uHTS hits, confirmation (AID 602368); assay type: functional
Sequence of 26S proteasome non-ATPase regulatory subunit 14 (O00487 whole entry): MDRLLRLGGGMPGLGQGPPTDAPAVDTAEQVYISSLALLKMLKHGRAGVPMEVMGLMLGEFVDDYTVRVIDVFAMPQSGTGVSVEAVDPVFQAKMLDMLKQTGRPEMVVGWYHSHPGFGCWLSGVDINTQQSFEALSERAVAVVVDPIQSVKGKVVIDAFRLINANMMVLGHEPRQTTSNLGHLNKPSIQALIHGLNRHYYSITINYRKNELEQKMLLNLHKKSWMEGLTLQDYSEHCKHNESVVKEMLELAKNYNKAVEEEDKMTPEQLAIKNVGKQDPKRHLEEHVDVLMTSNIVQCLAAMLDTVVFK

Streptokinase A = molecular target: T3, Streptokinase A (Streptococcus pyogenes serotype M1, UniProt P10520); experiment: S. pyogenes streptokinase expression inhibitors, potency, dose response, plasminogen activation absorbance, OD405 (AID 1914); assay type: functional, Streptococcus pyogenes M1 GAS;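 also: secreted streptokinase activity via plasminogen activation per viability signal from cell pellet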
T3 sequence (P10520 whole entry): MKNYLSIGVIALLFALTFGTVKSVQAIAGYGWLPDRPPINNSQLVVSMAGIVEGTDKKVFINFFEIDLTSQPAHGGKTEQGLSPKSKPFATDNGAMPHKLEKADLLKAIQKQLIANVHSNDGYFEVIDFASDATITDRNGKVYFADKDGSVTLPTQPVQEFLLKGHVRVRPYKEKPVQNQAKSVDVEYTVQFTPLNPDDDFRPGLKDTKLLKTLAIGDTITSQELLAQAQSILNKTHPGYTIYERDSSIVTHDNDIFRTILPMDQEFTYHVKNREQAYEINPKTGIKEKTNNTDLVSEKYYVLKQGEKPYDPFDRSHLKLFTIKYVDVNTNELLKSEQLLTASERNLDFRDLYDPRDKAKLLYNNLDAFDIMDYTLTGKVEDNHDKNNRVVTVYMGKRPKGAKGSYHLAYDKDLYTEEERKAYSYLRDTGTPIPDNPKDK

[11] = molecular target: T4, Voltage-gated N-type calcium channel alpha-1B subunit/Amyloid beta A4 precursor protein-binding family A member 1 (Homo sapiens, UniProt Q00975+Q02410); assay type: protein assay
T4 sequence (Q00975 whole entry): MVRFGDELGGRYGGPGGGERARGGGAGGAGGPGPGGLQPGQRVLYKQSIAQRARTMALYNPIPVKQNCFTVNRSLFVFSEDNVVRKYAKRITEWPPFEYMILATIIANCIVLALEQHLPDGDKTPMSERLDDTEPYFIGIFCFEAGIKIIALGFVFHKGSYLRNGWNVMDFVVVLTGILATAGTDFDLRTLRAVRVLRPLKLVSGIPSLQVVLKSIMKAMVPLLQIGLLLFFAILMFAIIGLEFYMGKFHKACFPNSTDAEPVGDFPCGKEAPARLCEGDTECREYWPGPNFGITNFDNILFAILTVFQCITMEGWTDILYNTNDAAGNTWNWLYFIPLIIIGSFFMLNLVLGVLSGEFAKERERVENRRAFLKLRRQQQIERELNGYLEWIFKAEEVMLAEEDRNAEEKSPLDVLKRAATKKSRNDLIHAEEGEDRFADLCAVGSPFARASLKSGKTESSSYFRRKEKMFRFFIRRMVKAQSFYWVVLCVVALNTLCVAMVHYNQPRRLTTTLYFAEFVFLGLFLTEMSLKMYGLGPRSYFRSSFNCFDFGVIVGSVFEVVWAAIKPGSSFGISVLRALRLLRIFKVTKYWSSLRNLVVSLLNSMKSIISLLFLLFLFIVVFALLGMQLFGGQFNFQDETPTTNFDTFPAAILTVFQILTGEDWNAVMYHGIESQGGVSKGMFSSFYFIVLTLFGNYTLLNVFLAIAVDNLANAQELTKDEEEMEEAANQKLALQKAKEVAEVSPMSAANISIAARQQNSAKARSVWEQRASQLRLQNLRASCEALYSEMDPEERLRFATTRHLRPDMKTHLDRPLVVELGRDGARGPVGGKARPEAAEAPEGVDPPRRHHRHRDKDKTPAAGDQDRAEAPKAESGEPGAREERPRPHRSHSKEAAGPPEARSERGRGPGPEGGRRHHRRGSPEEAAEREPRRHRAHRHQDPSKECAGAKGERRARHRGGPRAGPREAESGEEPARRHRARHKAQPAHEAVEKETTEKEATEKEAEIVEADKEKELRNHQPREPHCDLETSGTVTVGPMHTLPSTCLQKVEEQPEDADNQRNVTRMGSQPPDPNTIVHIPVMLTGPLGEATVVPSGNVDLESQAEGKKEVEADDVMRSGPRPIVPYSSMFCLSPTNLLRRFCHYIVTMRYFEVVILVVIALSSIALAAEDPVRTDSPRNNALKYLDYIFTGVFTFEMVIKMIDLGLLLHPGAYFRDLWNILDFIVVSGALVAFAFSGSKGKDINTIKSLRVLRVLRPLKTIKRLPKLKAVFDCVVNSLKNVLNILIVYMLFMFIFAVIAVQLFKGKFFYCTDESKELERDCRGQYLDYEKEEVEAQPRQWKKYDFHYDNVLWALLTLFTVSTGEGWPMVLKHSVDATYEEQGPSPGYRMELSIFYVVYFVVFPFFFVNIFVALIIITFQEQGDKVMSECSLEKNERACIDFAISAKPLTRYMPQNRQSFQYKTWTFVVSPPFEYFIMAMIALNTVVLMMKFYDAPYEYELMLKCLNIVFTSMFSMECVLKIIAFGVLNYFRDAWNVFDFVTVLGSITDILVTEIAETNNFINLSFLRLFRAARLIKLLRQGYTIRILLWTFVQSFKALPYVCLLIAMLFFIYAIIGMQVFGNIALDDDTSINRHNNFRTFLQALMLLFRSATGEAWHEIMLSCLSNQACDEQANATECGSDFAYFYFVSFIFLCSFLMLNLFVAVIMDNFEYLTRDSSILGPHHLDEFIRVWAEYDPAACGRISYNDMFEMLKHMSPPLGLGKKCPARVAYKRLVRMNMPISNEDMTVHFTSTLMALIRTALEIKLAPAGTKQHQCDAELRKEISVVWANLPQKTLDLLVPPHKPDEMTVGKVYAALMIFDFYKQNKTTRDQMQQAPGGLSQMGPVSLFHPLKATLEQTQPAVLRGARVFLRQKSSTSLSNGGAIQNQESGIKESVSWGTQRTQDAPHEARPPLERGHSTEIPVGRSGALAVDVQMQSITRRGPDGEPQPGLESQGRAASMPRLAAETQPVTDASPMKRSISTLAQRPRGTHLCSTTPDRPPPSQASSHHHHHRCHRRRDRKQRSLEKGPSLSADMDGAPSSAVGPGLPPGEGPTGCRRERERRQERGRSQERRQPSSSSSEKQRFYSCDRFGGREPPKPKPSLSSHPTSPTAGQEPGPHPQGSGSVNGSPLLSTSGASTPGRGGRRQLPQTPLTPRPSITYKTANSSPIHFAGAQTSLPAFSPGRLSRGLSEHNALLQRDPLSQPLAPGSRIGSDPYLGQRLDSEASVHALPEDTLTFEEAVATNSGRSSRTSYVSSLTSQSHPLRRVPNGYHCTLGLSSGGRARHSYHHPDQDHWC
T4 sequence (Q02410 whole entry): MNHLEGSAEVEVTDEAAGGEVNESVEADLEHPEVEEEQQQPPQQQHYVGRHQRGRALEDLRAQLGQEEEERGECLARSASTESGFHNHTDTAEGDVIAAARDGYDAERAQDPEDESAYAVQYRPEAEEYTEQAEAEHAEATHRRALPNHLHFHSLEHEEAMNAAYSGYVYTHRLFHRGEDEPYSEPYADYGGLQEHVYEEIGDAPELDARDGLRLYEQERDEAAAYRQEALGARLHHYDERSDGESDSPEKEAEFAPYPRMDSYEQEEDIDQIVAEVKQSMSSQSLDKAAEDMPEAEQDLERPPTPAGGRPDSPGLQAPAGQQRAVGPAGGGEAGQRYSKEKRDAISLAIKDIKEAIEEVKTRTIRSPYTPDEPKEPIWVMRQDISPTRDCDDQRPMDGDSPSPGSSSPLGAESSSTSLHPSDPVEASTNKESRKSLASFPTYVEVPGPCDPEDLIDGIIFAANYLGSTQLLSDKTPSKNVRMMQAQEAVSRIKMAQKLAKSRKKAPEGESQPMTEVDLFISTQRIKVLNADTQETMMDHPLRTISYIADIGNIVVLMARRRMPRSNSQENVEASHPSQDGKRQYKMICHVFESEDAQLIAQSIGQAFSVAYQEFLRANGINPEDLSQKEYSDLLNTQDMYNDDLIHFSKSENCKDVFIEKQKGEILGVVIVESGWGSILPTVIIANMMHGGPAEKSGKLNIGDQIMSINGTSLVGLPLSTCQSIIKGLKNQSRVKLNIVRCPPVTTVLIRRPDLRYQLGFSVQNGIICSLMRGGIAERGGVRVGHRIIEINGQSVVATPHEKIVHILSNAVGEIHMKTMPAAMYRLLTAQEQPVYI

[12] = molecular target: T5, Heat shock factor protein 1 (Mus musculus, UniProt P38532); experiment: HSF1 potentiators in luciferase reporter cells, confirmation, cell-based, NIH3T3, luminescence, dose retest (AID 435004); assay type: functional;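 also: stress induced by proteasome inhibitor MG132 added 30 min after compound; luciferase reporter driven by HSF1 response element in NIH3T3 cells; actives raise luminescence as potentiators of the MG132 stress response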
T5 sequence (P38532 whole entry): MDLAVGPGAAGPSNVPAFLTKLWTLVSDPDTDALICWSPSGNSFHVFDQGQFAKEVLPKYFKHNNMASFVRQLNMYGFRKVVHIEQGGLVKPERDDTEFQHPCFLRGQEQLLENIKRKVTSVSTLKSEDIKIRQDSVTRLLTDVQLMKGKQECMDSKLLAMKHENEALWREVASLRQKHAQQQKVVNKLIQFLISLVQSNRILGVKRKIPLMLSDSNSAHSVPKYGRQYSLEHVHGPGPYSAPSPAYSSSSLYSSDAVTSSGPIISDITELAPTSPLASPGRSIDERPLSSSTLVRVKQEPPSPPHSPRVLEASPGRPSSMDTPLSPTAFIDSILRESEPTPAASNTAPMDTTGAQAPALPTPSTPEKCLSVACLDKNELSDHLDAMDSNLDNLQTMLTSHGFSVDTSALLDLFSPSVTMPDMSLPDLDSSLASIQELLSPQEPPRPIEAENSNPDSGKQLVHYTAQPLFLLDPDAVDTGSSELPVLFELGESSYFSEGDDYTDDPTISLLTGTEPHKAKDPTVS

Bcl-2-like protein 10 = molecular target: T6, Bcl-2-like protein 10 (Homo sapiens, UniProt Q9HD36); experiment: displacers of TR3 peptide from Bcl-B, primary screen, selectivity assay for Bfl-1 inhibitor project, biochemical, fluorescence polarization, FITC-TR3 peptide (AID 748);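 also: fluorescence polarization from a fluorescein-labelled TR3 peptide binding purified Bcl-B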
T6 sequence (Q9HD36 whole entry): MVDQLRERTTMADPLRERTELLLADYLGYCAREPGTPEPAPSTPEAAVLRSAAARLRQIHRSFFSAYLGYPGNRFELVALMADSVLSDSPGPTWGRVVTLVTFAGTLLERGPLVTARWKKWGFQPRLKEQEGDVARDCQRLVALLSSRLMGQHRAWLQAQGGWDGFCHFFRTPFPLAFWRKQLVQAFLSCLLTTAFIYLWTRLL

BJ [13] = experiment: cytotoxicity toward BJ-TERT fibroblasts, dose response, cell-based, RAS-independent, luminescence (AID 1933); assay type: functional; settings: Homo sapiens
BJ [14] = experiment: cells; assay type: functional, cell-based; settings: Homo sapiens
Estrogen receptor = molecular target: T7, Estrogen receptor (Homo sapiens, UniProt P03372);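 also: potency for inhibiting coactivator peptide recruitment to the receptor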
T7 sequence (P03372 whole entry): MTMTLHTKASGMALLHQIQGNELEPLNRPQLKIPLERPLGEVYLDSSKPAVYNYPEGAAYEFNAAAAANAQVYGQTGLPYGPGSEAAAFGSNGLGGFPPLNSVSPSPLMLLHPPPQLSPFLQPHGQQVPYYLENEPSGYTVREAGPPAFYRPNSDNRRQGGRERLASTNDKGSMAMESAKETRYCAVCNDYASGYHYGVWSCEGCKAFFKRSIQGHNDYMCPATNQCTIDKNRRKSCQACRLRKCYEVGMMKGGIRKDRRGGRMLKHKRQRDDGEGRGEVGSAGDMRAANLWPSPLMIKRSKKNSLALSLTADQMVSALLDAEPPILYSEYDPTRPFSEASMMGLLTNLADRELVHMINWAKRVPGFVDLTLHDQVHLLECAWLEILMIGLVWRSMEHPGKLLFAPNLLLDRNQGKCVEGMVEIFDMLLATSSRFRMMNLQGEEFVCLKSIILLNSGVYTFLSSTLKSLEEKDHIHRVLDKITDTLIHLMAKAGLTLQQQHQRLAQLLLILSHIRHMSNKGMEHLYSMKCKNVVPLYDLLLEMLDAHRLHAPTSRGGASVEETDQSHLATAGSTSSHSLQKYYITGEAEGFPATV

[15] = cytotoxicity toward DRD oncogenic fibroblasts, dose response, cell-based, non-viral oncogenic, luminescence (AID 1934); assay type: functional; settings: Homo sapiens
BJ [16] = experiment: cytotoxicity toward BJ-TERT-LT-ST fibroblasts, dose response, cell-based, RAS-independent, luminescence (AID 1935); assay type: functional; settings: Homo sapiens;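 also: BJ fibroblasts immortalized with TERT plus LT and ST oncogenes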
[17] = molecular target: T4, Voltage-gated N-type calcium channel alpha-1B subunit/Amyloid beta A4 precursor protein-binding family A member 1; assay type: protein assay; remark: listed apart in the source
[18] = molecular target: T5, Heat shock factor protein 1; experiment: inhibition of MG132-induced HSE-luciferase signal, confirmation, cell-based, NIH3T3, luminescence, dose retest (AID 2382); assay type: functional;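 also: NIH3T3 fibroblasts with HSF1-driven luciferase reporter stressed by proteasome inhibitor MG132; luminescence from HSF1-driven luciferase expression after 8 hours of MG132 stress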
CAAX prenyl protease 2 = molecular target: T8, CAAX prenyl protease 2 (Saccharomyces cerevisiae S288c, UniProt Q03530); assay type: biochemical
T8 sequence (Q03530 whole entry): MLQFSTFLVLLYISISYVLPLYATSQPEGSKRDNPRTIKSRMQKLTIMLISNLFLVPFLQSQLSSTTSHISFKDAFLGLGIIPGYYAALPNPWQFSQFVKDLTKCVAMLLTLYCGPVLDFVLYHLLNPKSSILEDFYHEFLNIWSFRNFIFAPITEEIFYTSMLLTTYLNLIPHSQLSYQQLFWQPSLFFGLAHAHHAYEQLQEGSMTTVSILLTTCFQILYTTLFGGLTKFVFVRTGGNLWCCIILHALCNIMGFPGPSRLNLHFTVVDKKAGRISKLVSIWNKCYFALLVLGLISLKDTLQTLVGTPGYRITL

[19] = inhibitors of Vif binding to APOBEC3G peptide, primary screen, biochemical, TR-FRET, GST-Vif 1-94, biotin-A3G peptide, dose response retest (AID 1117319); assay type: functional;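 also: TR-FRET signal of purified GST-Vif binding a biotinylated A3G peptide; inhibitors lower the FRET signal by blocking Vif and A3G binding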
[20] = Vero cell cytotoxicity, dose response, cytotoxicity control for Vif-APOBEC3G degradation inhibitor project, Vero cells (AID 1117358); assay type: functional; settings: Human immunodeficiency virus 1, Vero

Sequence of Glyceraldehyde-3-phosphate dehydrogenase (P04406 whole entry): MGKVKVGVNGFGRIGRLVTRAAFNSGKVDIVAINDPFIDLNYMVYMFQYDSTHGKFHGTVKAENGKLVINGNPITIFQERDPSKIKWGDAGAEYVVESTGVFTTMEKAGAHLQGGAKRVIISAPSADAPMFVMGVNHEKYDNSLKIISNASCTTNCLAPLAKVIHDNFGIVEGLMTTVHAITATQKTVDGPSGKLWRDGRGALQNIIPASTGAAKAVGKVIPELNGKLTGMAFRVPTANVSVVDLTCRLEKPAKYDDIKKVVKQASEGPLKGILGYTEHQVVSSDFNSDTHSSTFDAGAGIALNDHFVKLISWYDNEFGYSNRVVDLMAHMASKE

COc1ccc(Cc2nc3c4cnn(C)c4ncn3n2)cc1
IC50 [1]: > 100 µM (not active)
IC50 [2]: > 100 µM (inactive)
IC50 [3]: > 100 µM (inactive)

N=C1/C(=C\c2ccc(-c3cccc(C(=O)O)c3)o2)C(=O)N=C2SC=C(c3ccccc3)N12
EC50 (Streptococcus): 8.79 µM (active)
IC50 [4]: 129 µM (active)
AC50 [5]: 2.19 µM (active)
IC50 [6]: 1.55 µM (active)
IC50 (Large T antigen): 92.2 µM (active)
IC50 [7]: 2.29 µM (active)
IC50 (Prothrombin): 15.8 µM (active)
EC50 [8]: 0.743 µM (active)
IC50 [9]: 9.07 µM (active)
IC50 [10]: 7.84 µM (active)
EC50 (Streptokinase A): > 150 µM (not active)

Cc1c(C(=O)OCC2CCCO2)[nH]c2c1C(=O)CC(c1ccco1)C2 (configuration not stated)
IC50 [11]: 21.9 µM (active)
EC50 [12]: > 260 µM (inactive)
IC50 (Bcl-2-like protein 10): 23.8 µM (active)
EC50 (BJ [13]): 12.2 µM (active)
EC50 (BJ [14]): 36.9 µM (active)
IC50 (Estrogen receptor): 32.1 µM (not active)
EC50 [15]: 21.8 µM (active)
EC50 (BJ [16]): 23.6 µM (active)
IC50 [17]: > 50 µM (inactive)

CC(=O)c1ccc(NC(=O)C(C)n2nc(-c3ccccc3)c3cc(Cl)ccc32)cc1 (configuration not stated)
IC50 [7]: 1.78 µM (active)
EC50 [18]: > 195 µM (not active)

CC(=O)Oc1ccc(C(=O)Nc2ccc(S(=O)(=O)NCC3CCCO3)cc2)cc1 (configuration not stated)
AC50 (CAAX prenyl protease 2): 68.7 µM (active)

CCn1nc(C)c(/C=N/NC(=O)c2ccc3c(c2)c(C)c(C)n3Cc2ccccc2)c1C
IC50 [3]: > 100 µM (inactive)

CC(C)c1c(C(=O)N/N=C/c2ccsc2)nnn1-c1nonc1N
AC50 (CAAX prenyl protease 2): 0.343 µM (active)

COc1ccc(OC)c(S(=O)(=O)Nc2cnc3ccccc3c2)c1
IC50 [19]: > 100 µM (active)
IC50 [1]: > 100 µM (not active)
CC50 [20]: > 40 µM (active)
IC50 [3]: > 100 µM (inactive)
